The values that follow come from patent US12370139B2 (TREEWAY TW001 B.V., priority 2017, dated 2025).

Molecules are shown by their SMILES. Like-named read-outs stand apart in the source and are kept apart here.

The nature of data set [1]: Example 2: repeat of the Example 1 study, with edaravone metabolites in plasma. Particulars: for Ratio conjugate-to-parent drug (AUClast): ratio calculated using AUClast (h · μMol/L); for Edaravone plasma concentration: time Pre; for AUC(0-inf): extrapolated to infinity. The format is in vivo, human. From the text: The study described in Example 1 was repeated, again using 18 healthy male and female human subjects.

Data set [2] in a line: Example 1: single dose, randomized, two-period, cross-over pharmacokinetic study, oral solution vs i.v. infusion. Particulars: for Edaravone plasma concentration: time Pre. Type of data set: in vivo, human. The protocol:
A single dose, randomized, two-period, cross-over study was conducted in 18 healthy male and female human subjects.

Data set [3] is described as follows: Dissolution rate of edaravone in water. The format is physicochemical. Particulars: in the presence of an alkalizing agent, especially at at least 0.3 grams edaravone per liter. An excerpt: The oxides and hydroxides of alkaline metals are preferably selected from NaOH, KOH, LiOH and combinations thereof. The oxides and hydroxides of alkali-earth metals are preferably selected from Ca(OH)2, CaO, Mg(OH)2, MgO and combinations thereof. The salts of weak organic and weak inorganic acids are preferably selected from carbonate, bicarbonate, borate, carboxylate (e.g. lactate, citrate, acetate, formate and oxalate), phosphate, sulfate and combinations thereof. The alkaline amines are preferably selected from tris(hydroxymethyl)aminomethane, ethanolamine, diethanolamine, triethanolamine, N-methyl-glucamine, glucosamine, ethylenediamine, diethylamine, triethylamine, isopropylamine, diisopropylamine, ammonia and combinations thereof. The alkaline amino acids are preferably selected from arginine, histidine, lysine and combinations thereof.

For data set [4] the following is noted: male Wistar rats, cited from earlier work.
For data set [5] the following is noted: SD rats, in comparison to intravenous administration; cited from earlier work.
For data set [6] the following is noted: rats, oral, dose of 27 mg/kg, suspended with 0.5% CMC-Na, compared to 100% for intravenous; cited from earlier work.
For data set [7] the following is noted: APP/PS1 Mice, oral 33.2 mg/kg/d; cited from earlier work.
The test system of data set [8] is APP/PS1 mice. Particulars: cited from earlier work.
Setting [9] is: i.v. infusion of edaravone 60 mg (n = 18).
Setting [10] is: oral administration of edaravone 140 mg (n = 18).
[11] abbreviates: both sexes, human, plasma, iv, Example 2, i.v. infusion 60 mg.
The mark [12] stands for this setting: both sexes, human, plasma, iv, Example 2, i.v. infusion (60 mg).
Setting [13] is: both sexes, human, plasma, Example 2, oral administration 140 mg.
Setting [14] is: both sexes, human, plasma, Example 2, oral administration (140 mg).

Regarding `Cc1cc(OS(=O)(=O)O)n(-c2ccccc2)n1` [Sulfate conjugate], the “Ratio conjugate-to-parent drug (AUClast)” value is on record as 9.9 ± 2.7 in data set [1] (setting [9]) and 9.5 ± 2.8 in data set [1] (setting [10]).

With `Cc1cc(O[C@@H]2O[C@H](C(=O)O)[C@@H](O)[C@H](O)[C@H]2O)n(-c2ccccc2)n1` [Glucuronide conjugate], the “Ratio conjugate-to-parent drug (AUClast)” value in data set [1] (setting [9]) was 1.4 ± 1.0; in data set [1] (setting [10]), 1.8 ± 0.8.

`CC1=NN(c2ccccc2)C(=O)C1` [Edaravone, 3-methyl-1-phenyl-2-pyrazolin-5-one]: the Edaravone plasma concentration in data set [2] (Example 1, i.v. infusion (60 mg, 60 minutes)) was 0 ng/mL. The same compound registered an Edaravone plasma concentration in data set [2] (Example 1, oral administration (140 mg)) of 0 ng/mL. The “systemic bioavailability (Fabs)” value in data set [2] (Example 1, oral compared to i.v. infusion) was determined as 79%. The “time at which peak maximum concentrations are reached after administration” value in data set [2] (Example 1, orally administered) was “about 15 min”. Moreover, in data set [1] (Example 2, i.v. infusion (60 mg)), the Edaravone plasma concentration is 0 ng/mL. Also, the Edaravone plasma concentration in data set [1] (Example 2, oral administration (140 mg)) came to 0 ng/mL. In addition, the “contribution of gastrointestinal metabolism to the overall plasma metabolism profile” value in data set [1] (Example 2, oral in comparison to intravenous administration) is “No indication for a relevant contribution of gastrointestinal metabolism”. In addition, the “time at which peak maximum concentrations are reached after administration” value in data set [1] (Example 2, orally administered) is reported as “about 14 min”. The bioavailability in data set [1] (both sexes, human, plasma, 140 mg, Example 2, oral compared to i.v. infusion, read-out: systemic bioavailability (Fabs)) was found to be 93%. Also, in data set [1] (setting [11]), the AUC(0-t) is 1220 ng·h/mL, the Cmax came to 943 ng/mL and the AUC(0-inf) was 1210 ng·h/mL. Further, in data set [1] (setting [12]), the concentration at 0.17 h was determined as 373 ng/mL, the concentration at 0.5 hrs is 696 ng/mL, the concentration at 1 hrs was 943 ng/mL and the concentration at 1.5 hrs stood at 298 ng/mL. Also, in data set [1] (setting [12]), the concentration at 4 h is 36 ng/mL, the concentration at 6 h amounted to 13 ng/mL, the concentration at 8 h is 7 ng/mL and the concentration at 10 h came to 5 ng/mL. In addition, in data set [1] (setting [13]), the AUC(0-t) worked out at 2560 ng·h/mL, the Cmax amounted to 3530 ng/mL, the time to peak (Tmax) was determined as 13.8 min and the AUC(0-inf) was 2570 ng·h/mL. Besides, in data set [1] (both sexes, human, plasma, Example 2, oral administration (140 mg), 0.083 hrs), the concentration at 0.083 h is 1530 ng/mL. Further, in data set [1] (setting [14]), the concentration at 0.17 h amounted to 2760 ng/mL, the concentration at 0.5 hrs worked out at 2000 ng/mL, the concentration at 1 hrs was 762 ng/mL and the concentration at 1.5 hrs came to 388 ng/mL. In addition, in data set [1] (setting [14]), the concentration at 4 h was 63 ng/mL, the concentration at 6 h came out at 24 ng/mL, the concentration at 8 h is 13 ng/mL and the concentration at 10 h amounted to 8 ng/mL. Moreover, in data set [1] (both sexes, human, plasma, Example 2, oral administration (140 mg), 0.25 hrs), the concentration at […] was 3060 ng/mL. The concentration at 2 hrs in data set [1] (both sexes, human, plasma, Example 2, oral administration (140 mg), 2 hrs) came out at 228 ng/mL. Further, in data set [3], the “rate at which edaravone dissolves in water” value is “increased substantially”. Also, the plasma concentration in data set [4] (orally administered at 10 mg/kg) is 243 ng/mL. In data set [4] (orally administered at 30 mg/kg), the plasma concentration is on record as 1314 ng/mL. Moreover, the plasma concentration in data set [4] (orally administered at 100 mg/kg) is 10999 ng/mL. For the same compound, in data set [5], the oral bioavailability is around 5.8%. For the same compound, the “absolute bioavailability (Fabs)” value in data set [6] is listed as 5.23%. Moreover, the “bioavailability of oral edaravone, of the i.v. delivery” value in data set [7] is reported as 38%. Moreover, in data set [8], the “cognitive deficits (escaping latency in platform testing, annulus crossing in probing test)” value is on record as “prominently attenuated”. In data set [8] (oral intake), the “Aβ levels in the brain” value is on record as “significantly reduced”; the “Aβ plaque burden in the hippocampus and neocortex” value is reported as “markedly alleviated”.

What is called bioavailability is the share of a dose that reaches the circulation, judged against a reference dose that is usually intravenous. By AUC(0-t) is commonly meant exposure summed from dosing to a finite time, without extrapolation to infinity. As a reminder, the Cmax is the peak of the concentration-time curve. In general, AUC(0-inf) refers to the area under the concentration-time curve extrapolated to infinity. What is called Tmax is the time at which the peak concentration occurs.
